IC50 data for four compounds are collected here from ChEMBL document CHEMBL1149471, “Pharmacophore-based virtual screening: the discovery of novel methionyl-tRNA synthetase inhibitors” (Bioorg Med Chem Lett, 2006).

The structures appear in SMILES notation.

The target of this experiment is Methionine--tRNA ligase (Escherichia coli K-12, UniProt P00959). The experiment can be described thus: Inhibition of Escherichia coli MetRS assessed as decrease in [35S]methionyl tRNAMet production by SPA.
Chain of Methionine--tRNA ligase (P00959 whole entry): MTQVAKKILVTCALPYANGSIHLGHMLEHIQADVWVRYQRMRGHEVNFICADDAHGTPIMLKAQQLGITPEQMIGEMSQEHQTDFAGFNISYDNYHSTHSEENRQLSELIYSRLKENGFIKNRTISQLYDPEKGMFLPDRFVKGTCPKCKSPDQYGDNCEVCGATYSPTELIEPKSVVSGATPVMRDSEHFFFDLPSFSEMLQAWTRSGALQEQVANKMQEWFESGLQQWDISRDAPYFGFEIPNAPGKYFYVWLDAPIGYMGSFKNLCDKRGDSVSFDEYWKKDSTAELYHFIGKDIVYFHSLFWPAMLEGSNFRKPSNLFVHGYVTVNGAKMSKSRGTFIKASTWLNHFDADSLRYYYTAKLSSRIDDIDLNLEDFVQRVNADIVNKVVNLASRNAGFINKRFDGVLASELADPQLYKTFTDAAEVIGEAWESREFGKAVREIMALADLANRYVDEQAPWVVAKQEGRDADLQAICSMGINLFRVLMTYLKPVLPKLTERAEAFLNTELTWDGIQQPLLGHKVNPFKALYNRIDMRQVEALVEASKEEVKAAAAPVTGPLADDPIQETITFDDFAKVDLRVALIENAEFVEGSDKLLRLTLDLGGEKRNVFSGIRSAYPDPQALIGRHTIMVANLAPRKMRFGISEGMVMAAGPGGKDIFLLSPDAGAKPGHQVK
For `O=C(CC(=O)Nc1ccccc1C(=O)O)Nc1nc2ccc(Br)cc2s1`, the IC50 amounted to 30.5 µM.
For `O=C(CNC(=O)c1cccs1)N/N=C/c1ccc(C(=O)O)cc1` the value was 0.237 µM; for `O=C(CNC(=O)c1cccc(Br)c1)N/N=C/c1ccc(C(=O)O)cc1`, 22.8 µM.
`NS(=O)(=O)c1ccc(CCNC(=S)Nc2cccc(C(F)(F)F)c2)cc1`: the IC50 stood at 47.7 µM.

What is called IC50 is the concentration that gives 50% inhibition.
